Results on 12 molecules are retold here after BindingDB's records for doi:10.1124/mol.63.6.1223 (Case Western Reserve University, 2003).

Some targets named below: D(1B) dopamine receptor (Homo sapiens, UniProt P21918); D(1A) dopamine receptor (Homo sapiens, UniProt P21728); D(2) dopamine receptor (Homo sapiens, UniProt P14416); D(3) dopamine receptor (Homo sapiens, UniProt P35462); Histamine H1 receptor (Homo sapiens, UniProt P35367); D(4) dopamine receptor (Rattus norvegicus, UniProt P30729); Cannabinoid receptor 1 (Rattus norvegicus, UniProt P20272).

Assay [1] has as its target 5-hydroxytryptamine receptor 2B (Homo sapiens, UniProt P41595).
The target of assay [2] is Sodium-dependent dopamine transporter (Rattus norvegicus, UniProt P23977).
The target in assay [3] is Norepinephrine transporter (Rattus norvegicus, UniProt Q9JIA2).
For assay [4], the target named is Sodium-dependent serotonin transporter (Rattus norvegicus, UniProt P31652).
The target of assay [5] is Gamma-aminobutyric acid receptor subunit alpha-1 (Rattus norvegicus, UniProt P62813).
In assay [6] the target is Acetylcholine receptor subunit alpha (Homo sapiens, UniProt P02708).
The target in assay [7] is Metabotropic glutamate receptor 1 (Rattus norvegicus, UniProt P23385).
For assay [8], the target named is Sodium-dependent noradrenaline transporter (Homo sapiens, UniProt P23975).
The target of assay [9] is 5-hydroxytryptamine receptor 5A (Homo sapiens, UniProt P47898).
The target of assay [10] is Alpha-1A adrenergic receptor (Homo sapiens, UniProt P35348).
The target in assay [11] is Alpha-2A adrenergic receptor (Homo sapiens, UniProt P08913).
In assay [12] the target is 5-hydroxytryptamine receptor 6 (Homo sapiens, UniProt P50406).
Assay [13] addresses Glutamate receptor ionotropic, NMDA 1 (Rattus norvegicus, UniProt P35439).
The target of assay [14] is 5-hydroxytryptamine receptor 1B (Homo sapiens, UniProt P28222).
Assay [15] addresses Muscarinic acetylcholine receptor M5 (Homo sapiens, UniProt P08912).
For assay [16], the target named is Metabotropic glutamate receptor 8 (Rattus norvegicus, UniProt P70579).
Assay [17] addresses Muscarinic acetylcholine receptor M1 (Homo sapiens, UniProt P11229).
Assay [18] has as its target 5-hydroxytryptamine receptor 7 (Homo sapiens, UniProt P34969).
Assay [19] concerns the target Beta-1 adrenergic receptor (Rattus norvegicus, UniProt P18090).
For assay [20], the target named is Voltage-dependent L-type calcium channel subunit alpha-1C (Rattus norvegicus, UniProt P22002).
The target of assay [21] is Muscarinic acetylcholine receptor M4 (Homo sapiens, UniProt P08173).
Assay [22] concerns the target Muscarinic acetylcholine receptor M2 (Homo sapiens, UniProt P08172).
Assay [23] concerns the target 5-hydroxytryptamine receptor 2C (Rattus norvegicus, UniProt P08909).
Assay [24] has as its target Beta-2 adrenergic receptor (Rattus norvegicus, UniProt P10608).
Assay [25] addresses Alpha-2C adrenergic receptor (Homo sapiens, UniProt P18825).
Assay [26] addresses Gamma-aminobutyric acid (GABA) B receptor 1 (Rattus norvegicus, UniProt Q6MFX8).
In assay [27] the target is Metabotropic glutamate receptor 4 (Rattus norvegicus, UniProt P31423).
Assay [28] concerns the target Prostaglandin E2 receptor EP3 subtype (Homo sapiens, UniProt P43115).
The target in assay [29] is 5-hydroxytryptamine receptor 1D (Homo sapiens, UniProt P28221).
Assay [30] addresses Metabotropic glutamate receptor 2 (Homo sapiens, UniProt Q14416).
Assay [31] has as its target Sodium-dependent dopamine transporter (Homo sapiens, UniProt Q01959).
Assay [32] concerns the target Neuronal acetylcholine receptor subunit alpha-3 (Homo sapiens, UniProt P32297).
Assay [33] deals with 5-hydroxytryptamine receptor 1A (Homo sapiens, UniProt P08908).
Assay [34] has as its target Prostaglandin E2 receptor EP4 subtype (Homo sapiens, UniProt P35408).

SMILES strings stand for the structures. Several values for one entry are separate records, joined by “and”; a condition that tells them apart may be missing. Equal entries are not always repeated.

Chain of 5-hydroxytryptamine receptor 2B (P41595 whole entry): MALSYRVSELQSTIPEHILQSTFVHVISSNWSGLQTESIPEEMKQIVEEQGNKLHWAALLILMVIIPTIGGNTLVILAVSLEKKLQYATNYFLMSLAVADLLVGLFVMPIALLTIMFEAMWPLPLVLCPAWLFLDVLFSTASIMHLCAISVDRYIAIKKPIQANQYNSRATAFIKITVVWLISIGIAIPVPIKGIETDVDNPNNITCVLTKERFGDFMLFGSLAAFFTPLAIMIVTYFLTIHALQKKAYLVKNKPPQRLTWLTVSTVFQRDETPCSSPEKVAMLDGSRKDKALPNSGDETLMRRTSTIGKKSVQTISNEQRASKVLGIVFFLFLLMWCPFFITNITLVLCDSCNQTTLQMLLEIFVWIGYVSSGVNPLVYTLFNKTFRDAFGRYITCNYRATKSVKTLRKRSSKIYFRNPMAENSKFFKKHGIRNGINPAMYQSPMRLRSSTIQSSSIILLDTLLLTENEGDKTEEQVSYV
Chain of Sodium-dependent dopamine transporter (Rattus norvegicus, UniProt P23977) (P23977 whole entry): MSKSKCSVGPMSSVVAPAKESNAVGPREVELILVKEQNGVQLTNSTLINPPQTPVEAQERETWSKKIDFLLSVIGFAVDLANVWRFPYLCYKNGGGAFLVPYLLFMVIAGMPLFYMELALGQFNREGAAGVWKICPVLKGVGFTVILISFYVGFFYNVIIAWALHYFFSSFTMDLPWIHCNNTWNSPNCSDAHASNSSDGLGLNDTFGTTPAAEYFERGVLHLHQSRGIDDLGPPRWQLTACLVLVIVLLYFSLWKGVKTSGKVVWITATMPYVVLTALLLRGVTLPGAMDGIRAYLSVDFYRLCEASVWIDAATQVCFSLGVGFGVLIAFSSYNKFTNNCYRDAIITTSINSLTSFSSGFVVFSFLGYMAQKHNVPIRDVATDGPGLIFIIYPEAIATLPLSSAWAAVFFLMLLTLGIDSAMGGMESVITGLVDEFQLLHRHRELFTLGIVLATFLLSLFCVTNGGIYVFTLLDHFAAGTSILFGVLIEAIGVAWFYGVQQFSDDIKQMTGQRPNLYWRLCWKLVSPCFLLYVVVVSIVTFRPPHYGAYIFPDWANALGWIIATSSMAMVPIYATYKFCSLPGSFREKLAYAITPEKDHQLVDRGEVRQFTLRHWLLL
Chain of Sodium-dependent serotonin transporter (P31652 whole entry): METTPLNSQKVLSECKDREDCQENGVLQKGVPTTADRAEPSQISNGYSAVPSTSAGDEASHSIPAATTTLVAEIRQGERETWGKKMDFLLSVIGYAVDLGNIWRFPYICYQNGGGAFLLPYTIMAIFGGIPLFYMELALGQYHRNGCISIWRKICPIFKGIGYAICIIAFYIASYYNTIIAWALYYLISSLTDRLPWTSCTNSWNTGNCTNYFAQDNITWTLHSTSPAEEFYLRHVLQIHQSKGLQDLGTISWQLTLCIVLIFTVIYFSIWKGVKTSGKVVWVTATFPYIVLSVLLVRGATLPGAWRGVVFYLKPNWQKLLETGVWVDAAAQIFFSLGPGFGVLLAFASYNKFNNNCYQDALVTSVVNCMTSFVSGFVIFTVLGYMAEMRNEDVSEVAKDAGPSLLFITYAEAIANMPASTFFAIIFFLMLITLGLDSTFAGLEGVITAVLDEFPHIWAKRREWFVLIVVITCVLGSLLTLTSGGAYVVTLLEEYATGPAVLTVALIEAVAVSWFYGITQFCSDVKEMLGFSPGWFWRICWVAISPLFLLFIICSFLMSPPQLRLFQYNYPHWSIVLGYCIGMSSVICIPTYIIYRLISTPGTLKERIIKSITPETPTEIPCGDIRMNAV
Chain of Muscarinic acetylcholine receptor M4 (P08173 whole entry): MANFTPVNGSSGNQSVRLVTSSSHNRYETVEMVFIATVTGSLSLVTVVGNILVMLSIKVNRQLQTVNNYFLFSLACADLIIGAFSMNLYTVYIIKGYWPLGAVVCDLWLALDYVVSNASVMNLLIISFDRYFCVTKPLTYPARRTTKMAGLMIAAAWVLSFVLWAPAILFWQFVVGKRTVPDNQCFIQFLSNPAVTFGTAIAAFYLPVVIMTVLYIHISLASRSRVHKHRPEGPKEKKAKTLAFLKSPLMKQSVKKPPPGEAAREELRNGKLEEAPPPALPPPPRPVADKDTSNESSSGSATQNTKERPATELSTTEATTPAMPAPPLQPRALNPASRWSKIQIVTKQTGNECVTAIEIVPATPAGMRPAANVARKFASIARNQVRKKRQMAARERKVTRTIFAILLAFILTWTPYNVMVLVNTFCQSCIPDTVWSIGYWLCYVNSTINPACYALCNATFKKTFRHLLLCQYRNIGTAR
Chain of 5-hydroxytryptamine receptor 1D (P28221 whole entry): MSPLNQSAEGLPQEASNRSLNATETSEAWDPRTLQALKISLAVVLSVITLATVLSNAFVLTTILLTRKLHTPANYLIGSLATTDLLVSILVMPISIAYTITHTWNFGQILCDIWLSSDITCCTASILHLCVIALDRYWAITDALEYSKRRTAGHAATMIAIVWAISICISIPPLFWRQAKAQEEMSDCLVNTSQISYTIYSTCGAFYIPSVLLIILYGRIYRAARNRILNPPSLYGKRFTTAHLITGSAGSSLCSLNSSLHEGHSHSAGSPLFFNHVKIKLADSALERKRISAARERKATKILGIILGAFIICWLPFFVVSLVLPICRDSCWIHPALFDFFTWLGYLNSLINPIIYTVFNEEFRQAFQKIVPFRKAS
Chain of 5-hydroxytryptamine receptor 1B (P28222 whole entry): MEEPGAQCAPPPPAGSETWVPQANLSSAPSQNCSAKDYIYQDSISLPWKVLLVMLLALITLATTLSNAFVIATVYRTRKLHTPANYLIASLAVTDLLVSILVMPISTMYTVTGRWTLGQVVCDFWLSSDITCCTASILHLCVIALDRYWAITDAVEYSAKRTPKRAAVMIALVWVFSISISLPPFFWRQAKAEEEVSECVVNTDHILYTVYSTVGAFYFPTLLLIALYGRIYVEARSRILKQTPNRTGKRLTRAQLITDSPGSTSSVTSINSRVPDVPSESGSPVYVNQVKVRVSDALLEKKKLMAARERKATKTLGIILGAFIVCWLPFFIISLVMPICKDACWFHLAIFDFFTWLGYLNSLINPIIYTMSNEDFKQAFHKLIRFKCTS
Chain of Muscarinic acetylcholine receptor M1 (P11229 whole entry): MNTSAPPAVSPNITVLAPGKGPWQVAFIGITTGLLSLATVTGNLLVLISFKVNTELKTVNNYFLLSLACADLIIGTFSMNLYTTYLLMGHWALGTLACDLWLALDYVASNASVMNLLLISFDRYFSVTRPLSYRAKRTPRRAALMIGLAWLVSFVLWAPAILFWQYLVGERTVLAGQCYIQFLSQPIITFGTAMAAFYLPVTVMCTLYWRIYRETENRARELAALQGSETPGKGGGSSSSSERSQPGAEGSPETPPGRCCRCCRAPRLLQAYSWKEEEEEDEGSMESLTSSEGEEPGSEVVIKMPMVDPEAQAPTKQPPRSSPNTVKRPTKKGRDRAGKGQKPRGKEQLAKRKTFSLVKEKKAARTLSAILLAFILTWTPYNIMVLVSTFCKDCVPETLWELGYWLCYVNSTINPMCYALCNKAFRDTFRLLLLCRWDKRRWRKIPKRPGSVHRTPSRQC
Chain of D(3) dopamine receptor (P35462 as listed by the source): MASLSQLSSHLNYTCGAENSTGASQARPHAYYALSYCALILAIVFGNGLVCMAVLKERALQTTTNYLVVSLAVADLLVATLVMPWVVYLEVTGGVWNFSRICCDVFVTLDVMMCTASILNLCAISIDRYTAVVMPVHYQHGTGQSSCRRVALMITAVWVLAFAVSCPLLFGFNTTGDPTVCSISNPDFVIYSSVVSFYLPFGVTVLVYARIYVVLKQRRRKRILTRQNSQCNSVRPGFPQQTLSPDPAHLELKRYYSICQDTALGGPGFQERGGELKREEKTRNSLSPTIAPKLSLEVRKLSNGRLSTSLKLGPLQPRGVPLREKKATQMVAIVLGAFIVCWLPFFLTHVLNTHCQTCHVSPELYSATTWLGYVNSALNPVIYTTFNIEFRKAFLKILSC
Chain of D(2) dopamine receptor (P14416 whole entry): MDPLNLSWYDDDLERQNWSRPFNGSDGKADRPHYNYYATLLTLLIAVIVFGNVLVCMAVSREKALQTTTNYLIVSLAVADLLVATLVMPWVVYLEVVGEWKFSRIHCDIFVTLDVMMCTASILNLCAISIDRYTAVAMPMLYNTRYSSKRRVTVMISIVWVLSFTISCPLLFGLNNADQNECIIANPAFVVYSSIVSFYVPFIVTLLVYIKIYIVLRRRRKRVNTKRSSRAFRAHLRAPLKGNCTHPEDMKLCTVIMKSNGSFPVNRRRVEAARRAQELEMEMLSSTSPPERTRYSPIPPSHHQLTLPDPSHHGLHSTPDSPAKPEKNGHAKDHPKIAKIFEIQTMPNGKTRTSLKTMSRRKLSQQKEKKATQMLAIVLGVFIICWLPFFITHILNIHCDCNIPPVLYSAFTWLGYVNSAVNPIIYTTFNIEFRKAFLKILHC
Chain of D(1B) dopamine receptor (P21918 whole entry): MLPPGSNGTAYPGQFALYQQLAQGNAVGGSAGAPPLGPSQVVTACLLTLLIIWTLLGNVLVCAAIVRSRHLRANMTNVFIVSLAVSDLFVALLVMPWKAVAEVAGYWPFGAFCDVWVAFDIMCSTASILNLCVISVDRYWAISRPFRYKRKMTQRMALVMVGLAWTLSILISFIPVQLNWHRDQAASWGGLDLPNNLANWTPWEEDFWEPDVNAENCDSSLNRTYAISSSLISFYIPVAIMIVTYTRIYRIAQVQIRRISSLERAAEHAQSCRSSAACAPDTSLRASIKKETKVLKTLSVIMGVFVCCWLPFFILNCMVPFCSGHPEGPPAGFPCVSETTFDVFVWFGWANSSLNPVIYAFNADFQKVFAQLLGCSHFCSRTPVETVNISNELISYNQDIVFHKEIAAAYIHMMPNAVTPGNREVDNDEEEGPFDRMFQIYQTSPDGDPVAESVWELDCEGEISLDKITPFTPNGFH

What is called Ki is a dissociation constant, usually derived from enzyme kinetics or from competition with a known ligand. Regarding `CC(N)Cc1ccc2c(c1)OCO2` (stereo unspecified), the Ki in assay [1] is 100 nM and 190 nM; in assay [2], 190 nM; in [3], 108 nM; in [4], 160 nM.

For the molecule `CCCN1CC(CSC)CC2c3cccc4[nH]cc(c34)CC21` (stereo unspecified) [CAS_66104-22-1], in assay [1], the Ki was 14 nM and 53 nM.

For the molecule `CN[C@@H](C)Cc1ccc2c(c1)OCO2` [DL-(3,4-Methylenedioxy)methamphetamine], the Ki (in [5]; in assay [6]; in assay [7]; in [8]; at D(1B) dopamine receptor; on D(1A) dopamine receptor) was over 10000 nM throughout. Moreover, the Ki at D(2) dopamine receptor is over 10000 nM; in assay [9], over 10000 nM; in [10], over 10000 nM; in assay [11] it was 2530 nM; in [12], over 10000 nM; in [1], 500 nM and 2000 nM. Also, the Ki is 278 nM in assay [2]; over 10000 nM in assay [13]; over 10000 nM in assay [14]; 6340 nM in assay [15]; over 10000 nM at D(3) dopamine receptor; over 10000 nM in assay [16]. The Ki in assay [17] was over 10000 nM; in assay [18], over 10000 nM; in [3], 110 nM; in [19] it was over 10000 nM; in assay [20], 1200 nM; in assay [21], 8240 nM. Further, the inhibition constant Ki on Histamine H1 receptor is 2140 nM; on D(4) dopamine receptor it was over 10000 nM; in assay [22], over 10000 nM; on Cannabinoid receptor 1 it was over 10000 nM; in assay [23], over 10000 nM; in assay [24], over 10000 nM. Besides, the inhibition constant (Ki) in [25] was 1120 nM; in assay [26] it was over 10000 nM; in assay [27] it was over 10000 nM; in assay [28], over 10000 nM; in assay [29] it was over 10000 nM; in [30] it was over 10000 nM. The Ki in assay [31] is over 10000 nM; in assay [32], over 10000 nM; in assay [33], over 10000 nM; in [34], over 10000 nM; in assay [4], 72 nM.

As for `CN[C@@H](C)Cc1ccc2c(c1)OCO2` [MDMA, R(-)], the Ki stood at 900 nM in assay [1], 3700 nM in assay [2], 560 nM in [3] and 340 nM in assay [4].

For the molecule `CN1CC(C(=O)NC2(C)OC3(O)C4CCCN4C(=O)C(Cc4ccccc4)N3C2=O)CC2c3cccc4[nH]cc(c34)CC21` (stereo unspecified) [NSC_3066], the Ki in assay [1] is 15.2 nM and 30 nM.

For the molecule `CCNC(C)Cc1cccc(C(F)(F)F)c1` (stereo unspecified) [NSC_3337], the Ki in assay [2] is over 10000 nM.

`CCC(CO)NC(=O)C1C=C2c3cccc4[nH]cc(c34)CC2N(C)C1` (stereo unspecified) [NSC_8226] had a Ki in [1] of 0.8 nM.

`CC(N)Cc1cccc(C(F)(F)F)c1` (stereo unspecified) [NSC_15897]: the Ki is 15 nM and 60 nM in assay [1]; 1900 nM in assay [2]; 170 nM in [3]; 104 nM in assay [4].

With `CN[C@H](C)Cc1ccc2c(c1)OCO2` [NSC_126235], the Ki stood at 6000 nM in assay [1], 142 nM in assay [2], 136 nM in assay [3] and 74 nM in [4].

In the case of `C[C@@H](N)Cc1ccc2c(c1)OCO2` [NSC_3046161], the Ki in assay [1] stood at 150 nM; in assay [2], 900 nM; in assay [3], 290 nM; in assay [4] it was 310 nM.

As to `C[C@H](N)Cc1ccc2c(c1)OCO2` [NSC_3050061], the Ki was determined as 100 nM in assay [1], 98 nM in assay [2], 50 nM in [3] and 100 nM in assay [4].

Turning to `NCCc1c[nH]c2ccc(O)cc12` [[3H]-5-HT], the Ki in assay [2] and in [3] was over 10000 nM in each case.
